These results are taken from ChEMBL document CHEMBL4680157, “Design, synthesis and biological evaluation of novel TRβ selective agonists sustained by ADME-toxicity analysis” (Eur J Med Chem, 2020).

Activity calls are given as the source filed them. The calls are words filed in the database; no cut-off is given here. Where only a bound is given, the exact number is not on record here.

As a reminder, the inhibition is the relative decrease from the control value, in per cent.

A short description of data set [1]: Toxicity in F344 rat assessed as effect on serum AST/GOT level at 75 ug per 100 g body weight, ip administered daily for 3 days (reference value: 153 +/- 11 U/L). The conditions noted are these: in vivo, 72 h, dose 75 µg, time 3 day. Format: organism-based.
A short description of data set [2]: Toxicity in F344 rat assessed as effect on serum glucose level at 100 ug per 100 g body weight, ig administered daily for 3 days (reference value: 151 +/- 13.5 mg/dl). The conditions noted are these: in vivo, po, 72 h, dose 100 µg, time 3 day.
A further data set has as its system HepG2. Briefly: Induction of lipolysis in human HepG2 cells assessed as reduction in intracellular lipid accumulation at 1 to 10 uM incubated for 24 hrs by Oil Red O staining based spectrophotometric analysis. The class given is functional, cell-based. The note with it: dose 1-10 µM.
Data set [3] deals with T1, AMP-activated protein kinase, AMPK (Homo sapiens) (UniProt P54646+O43741+P54619+Q9UGJ0+Q9Y478+Q13131+Q9UGI9). In words: Activation of AMPK in human HepG2 cells assessed as ratio of phosphorylated AMPK at 10 uM measured after 24 hrs by Western blot analysis. The class given is cell-based. The conditions noted are these: filed as activator.
Data set [4] in a line: Toxicity in F344 rat assessed as effect on serum glucose level at 50 ug per 100 g body weight, ig administered daily for 3 days (reference value: 151 +/- 13.5 mg/dl). The conditions noted are these: in vivo, po, 72 h, dose 50 µg, time 3 day.
Data set [5] is described as follows: Toxicity in F344 rat assessed as effect on serum triglycerides level at 75 ug per 100 g body weight, ip administered daily for 3 days (reference value: 86.8 +/- 10.4 mg/dl). The class given is organism-based. The conditions noted are these: in vivo, 72 h, dose 75 µg, time 3 day.
Data set [6] can be described thus: Toxicity in F344 rat assessed as increase in heart weight at 50 to 100 ug per 100 g body weight, ig administered daily for 3 days. The note with it: in vivo, po, 72 h, dose 50-100 µg, time 3 day.
Data set [7] can be described thus: Toxicity in F344 rat assessed as effect on serum ALT/GPT level at 100 ug per 100 g body weight, ig administered daily for 3 days (reference value: 46 +/- 4 U/L). The note with it: in vivo, po, 72 h, dose 100 µg, time 3 day.
Data set [8] in a line: Toxicity in F344 rat assessed as effect on serum AST/GOT level at 75 ug per 100 g of body weight, ig administered daily for 3 days (reference value: 153 +/- 11 U/L). The conditions noted are these: in vivo, po, 72 h, dose 75 µg, time 3 day.
A short description of data set [9]: Toxicity in F344 rat assessed as effect on serum bilirubin level at 75 ug per 100 g body weight, ig administered daily for 3 days (reference value: 1.4 +/- 0.2 mg/dl). The conditions noted are these: in vivo, po, 72 h, dose 75 µg, time 3 day.
A short description of data set [10]: Toxicity in F344 rat assessed as effect on serum bilirubin level at 50 ug per 100 g body weight, ig administered daily for 3 days (reference value: 1.4 +/- 0.2 mg/dl). The conditions noted are these: in vivo, po, 72 h, dose 50 µg, time 3 day.
Data set [11] can be described thus: Cytotoxicity against human MCF7 cells assessed as cell growth inhibition at 10 uM after 48 hrs relative to control. Format: cell-based.
The nature of data set [12]: Toxicity in F344 rat assessed as effect on serum glucose level at 75 ug per 100 g body weight, ig administered daily for 3 days (reference value: 151 +/- 13.5 mg/dl). The note with it: in vivo, po, 72 h, dose 75 µg, time 3 day.
The nature of data set [13]: Toxicity in F344 rat assessed as effect on serum ALT/GPT level at 75 ug per 100 g body weight, ip administered daily for 3 days (reference value: 46 +/- 4 U/L). Format: organism-based. The conditions noted are these: in vivo, 72 h, dose 75 µg, time 3 day.
Data set [14] is described as follows: Toxicity in F344 rat assessed as effect on serum cholesterol level at 50 ug per 100 g body weight, ig administered daily for 3 days (reference value: 67.2 +/- 2.5 mg/dl). The note with it: in vivo, po, 72 h, dose 50 µg, time 3 day.
Data set [15] can be described thus: Cytotoxicity against human MCF7 cells assessed as cell growth inhibition at 10 uM after 24 hrs relative to control. The class given is cell-based.
The target in data set [16] is T1, AMP-activated protein kinase, AMPK (Homo sapiens). In words: Activation of AMPK in human HepG2 cells assessed as ratio of phosphorylated ACC at 10 uM measured after 24 hrs by Western blot analysis. The class given is cell-based. The conditions noted are these: filed as activator. Background: A western blot detects proteins with antibodies after separation by electrophoresis.

Data set [17] can be described thus: Toxicity in F344 rat assessed as effect on serum ALT/GPT level at 75 ug per 100 g body weight, ig administered daily for 3 days (reference value: 46 +/- 4 U/L). The note with it: in vivo, po, 72 h, dose 75 µg, time 3 day.
Data set [18] is described as follows: Toxicity in F344 rat assessed as effect on serum triglycerides level at 100 ug per 100 g body weight, ig administered daily for 3 days (reference value: 86.8 +/- 10.4 mg/dl). The note with it: in vivo, po, 72 h, dose 100 µg, time 3 day.
A short description of data set [19]: Toxicity in F344 rat assessed as effect on serum cholesterol level at 75 ug per 100 g body weight, ip administered daily for 3 days (reference value: 67.2 +/- 2.5 mg/dl). Format: organism-based. The conditions noted are these: in vivo, 72 h, dose 75 µg, time 3 day.
A further data set addresses CYP2D6 (Homo sapiens, UniProt P10635). In words: Inhibition of CYP2D6 (unknown origin) at 10 uM relative to control. The class given is ADME.
Data set [20] can be described thus: Toxicity in F344 rat assessed as effect on serum glucose level at 75 ug per 100 g body weight, ip administered daily for 3 days (reference value: 151 +/- 13.5 mg/dl). The note with it: in vivo, 72 h, dose 75 µg, time 3 day. The class given is organism-based.
Data set [21] can be described thus: Toxicity in F344 rat assessed as effect on serum bilirubin level at 75 ug per 100 g body weight, ip administered daily for 3 days (reference value: 1.4 +/- 0.2 mg/dl). The class given is organism-based. The note with it: in vivo, 72 h, dose 75 µg, time 3 day.
A further data set has as its target T2, HDAC8 (Homo sapiens, UniProt Q9BY41).
T2 sequence (Q9BY41 whole entry): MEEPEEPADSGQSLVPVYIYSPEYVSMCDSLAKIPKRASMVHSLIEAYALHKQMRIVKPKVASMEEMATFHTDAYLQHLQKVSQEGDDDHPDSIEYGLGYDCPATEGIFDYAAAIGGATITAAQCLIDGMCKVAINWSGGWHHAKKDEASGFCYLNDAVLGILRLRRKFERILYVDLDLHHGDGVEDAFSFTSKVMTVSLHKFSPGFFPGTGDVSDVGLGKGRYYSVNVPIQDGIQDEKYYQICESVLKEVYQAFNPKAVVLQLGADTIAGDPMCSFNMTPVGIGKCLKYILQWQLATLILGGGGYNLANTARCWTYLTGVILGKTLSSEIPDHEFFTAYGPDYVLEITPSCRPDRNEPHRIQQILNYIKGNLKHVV
In words: Inhibition of HDAC8 (unknown origin) at 10 uM relative to control.

Another data set has as its target CYP3A4 (Homo sapiens, UniProt P08684). Briefly: Inhibition of CYP3A4 (unknown origin) at 10 uM relative to control. Format: ADME.
A short description of data set [22]: Toxicity in F344 rat assessed as effect on serum cholesterol level at 100 ug per 100 g body weight, ig administered daily for 3 days (reference value: 67.2 +/- 2.5 mg/dl). The note with it: in vivo, po, 72 h, dose 100 µg, time 3 day.
The nature of data set [23]: Toxicity in F344 rat assessed as effect on serum AST/GOT level at 50 ug per 100 g of body weight, ig administered daily for 3 days (reference value: 153 +/- 11 U/L). The note with it: in vivo, po, 72 h, dose 50 µg, time 3 day.
A short description of data set [24]: Toxicity in F344 rat assessed as reduction in liver and body weight ratio at 50 to 100 ug per 100 g body weight, ig administered daily for 3 days. The note with it: in vivo, po, 72 h, dose 50-100 µg, time 3 day. Format: tissue-based.
A short description of data set [25]: Toxicity in F344 rat assessed as effect on serum cholesterol level at 75 ug per 100 g body weight, ig administered daily for 3 days (reference value: 67.2 +/- 2.5 mg/dl). The note with it: in vivo, po, 72 h, dose 75 µg, time 3 day.

CYP3A4, sequence (P08684 whole entry): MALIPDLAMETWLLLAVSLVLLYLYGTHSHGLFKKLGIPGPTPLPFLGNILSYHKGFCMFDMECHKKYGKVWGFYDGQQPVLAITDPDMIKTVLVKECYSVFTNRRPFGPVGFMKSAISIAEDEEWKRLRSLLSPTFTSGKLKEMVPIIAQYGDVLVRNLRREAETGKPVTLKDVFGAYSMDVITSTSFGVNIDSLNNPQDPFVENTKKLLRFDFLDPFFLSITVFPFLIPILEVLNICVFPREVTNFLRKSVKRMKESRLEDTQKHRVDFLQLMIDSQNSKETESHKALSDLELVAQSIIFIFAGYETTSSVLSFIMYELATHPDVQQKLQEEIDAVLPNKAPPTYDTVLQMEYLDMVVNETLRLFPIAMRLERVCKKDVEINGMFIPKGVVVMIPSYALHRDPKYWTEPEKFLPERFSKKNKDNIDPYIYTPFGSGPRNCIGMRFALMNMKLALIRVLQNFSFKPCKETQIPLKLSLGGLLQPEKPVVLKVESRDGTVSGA
CYP2D6, sequence (P10635 whole entry): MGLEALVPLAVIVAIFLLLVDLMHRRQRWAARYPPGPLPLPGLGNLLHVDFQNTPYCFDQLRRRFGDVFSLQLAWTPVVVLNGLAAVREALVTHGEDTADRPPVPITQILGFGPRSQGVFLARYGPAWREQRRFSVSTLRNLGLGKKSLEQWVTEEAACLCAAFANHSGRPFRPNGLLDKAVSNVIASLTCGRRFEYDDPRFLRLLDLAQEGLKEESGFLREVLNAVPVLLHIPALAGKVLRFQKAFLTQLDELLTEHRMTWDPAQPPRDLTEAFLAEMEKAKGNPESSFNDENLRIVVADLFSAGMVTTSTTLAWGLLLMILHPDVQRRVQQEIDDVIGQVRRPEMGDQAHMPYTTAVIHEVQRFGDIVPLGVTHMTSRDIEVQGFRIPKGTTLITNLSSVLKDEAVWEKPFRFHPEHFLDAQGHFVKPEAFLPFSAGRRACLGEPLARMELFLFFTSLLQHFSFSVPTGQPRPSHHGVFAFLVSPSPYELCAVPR

With `Cc1cc(OCC(=O)O)cc(C)c1Cc1ccc(N)c(C(C)C)c1`, the Activity in data set [1] was 123 U/L; in [2], 166 mg/dL; in data set [4], 136 mg/dL; in [5] it was 79.6 mg/dL; in data set [6], “Non-Toxic”; in data set [7], 42 U/L. For the same molecule, the Activity in [8] amounted to 119 U/L; in data set [9], 1.6 mg/dL; in data set [10] it was 1.3 mg/dL; in data set [12] it was 153 mg/dL; in data set [13] it was 36 U/L; in data set [14], 69.5 mg/dL. The Activity in [17] is 43 U/L; in data set [18], 67.8 mg/dL; in [19], 69.6 mg/dL; in [20], 129 mg/dL; in data set [21], 1.1 mg/dL; in data set [22] it was 70.1 mg/dL. Further, the Activity is 134 U/L in data set [23], “Non-Toxic” in data set [24] and 68.6 mg/dL in data set [25]. The outcome (in the data set on HepG2; in data set [3]; in data set [16]) was Active. Moreover, in [11], the inhibition at 48 h, 10 µM was less than 50%. The inhibition at 24 h, 10 µM in [15] is less than 50%. Further, the figures for the inhibition at 10 µM on CYP2D6, against HDAC8 and at CYP3A4 were less than 50%, less than 50% and 51%, respectively.
On to `Cc1cc(OCC(=O)O)cc(C)c1Cc1ccc(O)cc1`, for which, in [11], the inhibition at 48 h, 10 µM is less than 50%. For the same molecule, the inhibition at 24 h, 10 µM in data set [15] was less than 50%. Besides, the inhibition at 10 µM against CYP2D6, on HDAC8 and against CYP3A4 was less than 50% each time.
As for `CC(=O)Nc1ccc(Cc2c(C)cc(OCC(=O)O)cc2C)cc1C(C)C`, the Activity in [1] is 134 U/L; in data set [2], 164 mg/dL; in [4], 129 mg/dL; in [5], 74.2 mg/dL; in [6] it was “Non-Toxic”; in data set [7], 37 U/L. Further, the Activity in [8] was 133 U/L; in [9], 0.9 mg/dL; in data set [10], 1.1 mg/dL; in data set [12], 132 mg/dL; in [13], 38 U/L; in [14], 68 mg/dL. Also, the Activity in data set [17] is 46 U/L; in [18], 62.8 mg/dL; in data set [19] it was 71.4 mg/dL; in data set [20] it was 132 mg/dL; in data set [21], 1.5 mg/dL; in data set [22], 67.6 mg/dL. For the same molecule, the results for the Activity in data set [23], in data set [24] and in [25] were 141 U/L, “Non-Toxic” and 71.4 mg/dL, respectively. The outcome (in the data set with HepG2; in [3]; in data set [16]) was Active. Besides, the inhibition at 48 h, 10 µM in data set [11] is less than 50%. Besides, the inhibition at 24 h, 10 µM in [15] is less than 50%. For the same molecule, the inhibition at 10 µM on CYP2D6, at HDAC8 and at CYP3A4 was less than 50% each time.
